The source of these data is US12060577B2, “Compositions for expanding natural killer cells” (CASE WESTERN RESERVE UNIVERSITY, priority 2017, dated 2024).

This assay concerns OCI-AML3 target cells. Nature of the assay: effect of TGF-beta and galunisertib on NK cell cytotoxicity (FIG. 11). It is filed as cell-based. The conditions noted are these: 72 hours, NK cells expanded with K562 mbIL-21, 5:1 NK:target. Here is the method: NK cell cytotoxic function was assessed by measuring the number of live cells identified by calcein-AM (CAM) labeling. Target cells and NK cells were labeled with CAM (BD Pharmingen, San Jose, Calif.) and calcein-violet (CV) (eBioscience from ThermoFisher), respectively for approximately 15 minutes in the dark at room temperature. NK cells were co-incubated with target cells at the indicated ratios for 4 hours in triplicate at 37° C. in a tissue culture incubator with 5% CO2, and the samples were analyzed by flow cytometry (Attune NXT, Invitrogen) in 96 well plates. The CV-positive NK cells were gated out for analysis. Percent lysis was calculated according to the equation below: […]
Referring to FIG. 11, expanded NK cells (K562 cells expressing mbIL-21) were treated with TGF-beta (5 ng/mL), galunisertib, or a combination thereof for 72 hours. […] That drop can be rescued and reversed by co-administering NK cells with galunisertib (middle and right bars), in which case killing efficacy was improved by about 10%.

In the case of `Cc1cccc(-c2nn3c(c2-c2ccnc4ccc(C(N)=O)cc24)CCC3)n1` [galunisertib], the “improvement of killing efficacy” value is reported as “about 10%”.
